The text below walks through data of PubChem BioAssay (NCI).

What all share (assay): NCI tumour cell line growth inhibition, 48 h
The test system of assay [1] is OVCAR-3 ovarian.
Assay [2] has as its system NCI-H23 lung.
Assay [3] deals with OVCAR-8 ovarian.
The test system of assay [4] is OVCAR-4 ovarian.
Assay [5] deals with CCRF-CEM leukemia.
For assay [6], the system named is SNB-19 CNS.
Assay [7] relates to RPMI-8226 leukemia.
In assay [8] the test system is PC-3 prostate.
Assay [9] has as its system UACC-257 melanoma.
Assay [10] concerns M14 melanoma.

Several values for one entry are separate records, joined by “and”; a condition that tells them apart may be missing. Identical values can stand only once.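 In this assay, cells in 96-well plates receive the compound at five concentrations for 48 hours. Endpoints are linearly interpolated between the surrounding concentrations. GI50 = concentration required for 50% inhibition of growth. Definition used: TGI = concentration required for complete inhibition of growth.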

For `CCOc1ccccc1/C=N\N=C(N/N=C/c1ccccc1OCC)N/N=C/c1ccccc1OCC`, the GI50 in assay [1] is 0.532 µM; in assay [2], 2.77 µM; in assay [3] it was 3.01 µM; in assay [4], 1.17 µM; in [5], 3.21 µM; in [6] it was 2.2 µM. Further, the values for the GI50 in assay [7], in assay [8] and in assay [9] were 1.73 µM, 2.06 µM and 3.12 µM, respectively. Besides, the TGI in assay [1] is 6.79 µM; in assay [2] it was above 100 µM; in assay [3], above 100 µM; in assay [4], above 100 µM; in [5] it was above 100 µM; in assay [6], above 100 µM. The TGI in assay [7], in assay [8] and in assay [9] was above 100 µM throughout.
Consider `CCCCCCOC(=O)CC1=C(C)/C(=C/c2[nH]c(-c3ccc[nH]3)cc2OC)N=C1C`, for which the GI50 in assay [10] is 0.0342 µM; in assay [1] it was 0.168 µM; in assay [2] it was 0.101 µM; in assay [3], 0.238 µM; in assay [4], 0.0785 µM; in [5], 0.0256 µM. For the same compound, the figures for the GI50 in assay [6], in assay [8] and in assay [9] were 0.271 µM, 0.0487 µM and 0.394 µM, respectively. Moreover, the TGI in [10] is 0.328 µM; in [1] it was 1.15 µM; in assay [2], 1.75 µM; in assay [3], 1.21 µM; in assay [4], 1.71 µM; in assay [5] it was 1.56 µM. In addition, the TGI in [6] is 2.76 µM; in assay [8], 1.78 µM; in [9] it was 1.51 µM.
Take `CCNCC(=O)Nc1ccc2c(c1)C(=O)c1ccc(NC(=O)CNCC)cc1C2=O`: the TGI is 12.5 µM in assay [10]; 8.74 µM in [1]; 14.8 µM in assay [2]; 15.1 µM in assay [3]; 2.24 µM in assay [4]; above 100 µM in assay [5]. The TGI in assay [6] is 12.1 µM; in assay [8], above 100 µM; in [9], 18.6 µM.
In the case of `CC(=O)OCC1OC(SC2=N/C(=C\c3ccc(Br)s3)C(=O)N2c2ccccc2)C(OC(C)=O)C(OC(C)=O)C1OC(C)=O` (stereo not given), the GI50 is 91.1 µM and 20.7 µM in assay [1]; 27.9 µM and 70.3 µM in assay [3]; 37.7 µM and 7.96 µM in [7]; > 100 µM and 42.5 µM in [9]. Moreover, the TGI in assay [1] is > 100 µM and 85.2 µM; in assay [2] it was above 100 µM; in [3], above 100 µM; in assay [4], above 100 µM; in assay [6], above 100 µM; in assay [7] it was > 100 µM and 61 µM. The TGI in assay [8] and in assay [9] was above 100 µM throughout.
In the case of `CCCCCSc1ccc2nc(NC(=O)OCC)sc2c1`, the GI50 in assay [10] is 0.446 µM; in [1], 0.346 µM; in [2], 1.15 µM; in assay [3], 4.85 µM; in [5], 0.628 µM; in assay [6] it was 0.778 µM. Also, the GI50 in assay [7] was 1.04 µM; in assay [8], 0.798 µM; in [9], above 100 µM. For the same compound, the TGI in [10] was above 100 µM; in assay [1], 2.14 µM; in [2], above 100 µM; in assay [3], above 100 µM; in [5], above 100 µM; in [6] it was above 100 µM. In addition, the TGI in assay [7], in assay [8] and in assay [9] was above 100 µM throughout.
Regarding `CCn1nc(C2CCN(C(=O)CCO)CC2)nc1-c1cnc(N)c(-c2nnc(C(C)(C)C)o2)n1`, the GI50 in assay [10] was 27.7 µM; in [1], 7.81 µM; in assay [2] it was 26.1 µM; in assay [3], 38.2 µM; in [4], 53.7 µM; in assay [5] it was 18.2 µM. For the same compound, the GI50 in assay [6] is above 100 µM; in [7], 28 µM; in assay [8] it was 3.2 µM. In addition, the TGI was above 100 µM in assay [10]; 38.4 µM in [1]; above 100 µM in assay [2]; above 100 µM in [3]; above 100 µM in assay [4]; above 100 µM in [5]. For the same compound, the TGI in assay [6] is above 100 µM; in assay [7], above 76.7 µM; in [8], above 100 µM.
Take `O=Cc1ccc(-c2ccc(-c3nc4ccccc4s3)cc2)o1`: the GI50 in assay [10] is above 100 µM; in assay [1], 16 µM; in [2], 67.7 µM; in [3], 70.7 µM; in assay [4], above 100 µM; in assay [6], above 100 µM. Further, the GI50 in assay [7] was 20.9 µM; in assay [8], 45.2 µM; in assay [9], above 100 µM. Also, the TGI in assay [10] was above 100 µM; in assay [1] it was 74.1 µM; in [2] it was above 100 µM; in assay [3], above 100 µM; in assay [4], above 100 µM; in assay [6], above 100 µM. The TGI in assay [7], in assay [8] and in [9] was above 100 µM each time.
`OCC1OC(N2C=C(c3nc4ccccc4s3)C3C=CC=CC32)C(O)C(O)C1O` (stereo not given): the GI50 was 15.3 µM in [10]; 14.9 µM in [1]; 15.6 µM in [2]; 18.9 µM in [3]; 22.1 µM in assay [6]; 11.4 µM in assay [7]. The GI50 in assay [8] was 13 µM; in assay [9], 14.8 µM. Besides, the TGI in [10] is above 50 µM; in assay [1], above 50 µM; in [2], above 50 µM; in assay [3], above 50 µM; in assay [6], above 50 µM; in [7] it was 36.4 µM. For the same compound, the TGI in assay [8] is above 50 µM; in assay [9] it was 42.9 µM.
Consider `CCCCCCCCCCCCCCCCn1cc[n+](C)c1`, for which the GI50 in assay [10] was 0.268 µM; in assay [1], 0.286 µM; in [2], 0.287 µM; in assay [4] it was 0.372 µM; in [5] it was 0.139 µM; in [6] it was 0.705 µM. Moreover, the figures for the GI50 in [7] and in [8] were 0.024 µM and 0.183 µM, respectively. Besides, the TGI worked out at 1.3 µM in [10]; 1.02 µM in assay [1]; 1.87 µM in assay [2]; 17.8 µM in assay [4]; 0.512 µM in assay [5]; 2 µM in assay [6]. Besides, the TGI in assay [7] is 0.19 µM; in assay [8] it was 0.58 µM.
For `CCOc1ccc(-c2nc3ccc(-c4nc5ccc(N6CCN(C)CC6)cc5[nH]4)cc3[nH]2)cc1`, the GI50 is 0.264 µM in assay [10]; 0.125 µM in assay [1]; 0.288 µM in [2]; 0.162 µM and 0.315 µM in assay [3]; 0.219 µM in assay [4]; 0.316 µM in [5]. In addition, the GI50 in assay [6] was 0.448 µM; in assay [7] it was 0.0484 µM; in assay [8], 0.352 µM. For the same compound, the TGI in assay [10] was 2.08 µM; in assay [1] it was 0.393 µM; in assay [2] it was 1.44 µM; in [3] it was 0.54 µM and 1.25 µM; in assay [4], 0.838 µM; in assay [5], 1.87 µM. In addition, the TGI was 1.73 µM in [6], 0.71 µM in assay [7] and 6.19 µM in assay [8].
Regarding `CCOC(=O)Cc1csc(NC(=O)C(OC(=O)c2ccc(Cl)cc2)c2ccccc2)n1` (stereo not given), the GI50 is 22.1 µM in assay [10]; 17.8 µM in assay [1]; 64.8 µM in [3]; 40.3 µM in assay [4]; 50.5 µM in [6]; 17.1 µM in assay [7]. Also, the results for the GI50 in [8] and in [9] were 35.1 µM and 41.3 µM, respectively. The TGI in assay [10] was 52 µM; in assay [1], 41.9 µM; in assay [3], above 100 µM; in assay [4], above 100 µM; in assay [6], above 100 µM; in assay [7] it was 46.6 µM. Further, the TGI in [8] and in assay [9] was above 100 µM each time.
`O=S(O)O.O=S(O)O.[Co].[NH2-].[NH2-].[NH2-].[NH2-]`: the GI50 in assay [10], in [1], in [2], in [3], in assay [4] and in assay [6] was above 100 µM in each case. Further, the GI50 in assay [7], in assay [8] and in assay [9] was above 100 µM throughout. Besides, the TGI in assay [10], in assay [1], in assay [2], in assay [3], in [4] and in assay [6] was above 100 µM throughout. The TGI in assay [7], in assay [8] and in [9] was above 100 µM throughout.
With `COc1ccc(C)c2sc(N(Cc3cccnc3)C(=O)c3ccc(C#N)cc3)nc12`, the GI50 in assay [10] is 44.9 µM; in assay [1], 40.1 µM; in assay [2], 43.5 µM; in [3], 48.1 µM; in assay [5], 36.6 µM; in assay [6], 94.7 µM. For the same compound, the figures for the GI50 in assay [7], in [8] and in assay [9] were 26.1 µM, 30.2 µM and 56 µM, respectively. The TGI in assay [10], in [1], in assay [2], in assay [3], in assay [5] and in assay [6] was above 100 µM in each case. Further, the TGI in assay [7], in [8] and in assay [9] was above 100 µM each time.
`CCCN(CCC)c1ccc(/C=N/NC(=O)c2cccnc2)c(C)c1`: the GI50 in [1] was 13 µM; in assay [2], 14.4 µM; in [3] it was 18 µM; in [4], 15.3 µM; in assay [5], 16.4 µM; in [6], 16.1 µM. The GI50 in [7] was 19.4 µM; in assay [8] it was 16.8 µM; in assay [9], 12.3 µM. Besides, the TGI in [1] came out at 27.8 µM; in assay [2] it was 32.1 µM; in [3], 44.1 µM; in assay [4], 78.5 µM; in [5] it was 52.3 µM; in assay [6] it was 34.1 µM. Besides, the figures for the TGI in assay [7], in assay [8] and in assay [9] were 68.7 µM, 67.7 µM and 24.8 µM, respectively.
As for `CC(C)C1=Cc2ccc3c(c2C(=O)C1=O)CCCC3`, the TGI worked out at 11.1 µM in assay [10]; 5.33 µM in assay [1]; 20.3 µM in assay [2]; 13.4 µM in assay [3]; 3.16 µM in assay [4]; 37.5 µM in assay [6]. The TGI in assay [7] is 6.6 µM; in [8], 26.8 µM; in assay [9] it was 6.57 µM.
Take `Cc1ccc(-c2cc(C(=O)Nc3ccc(S(=O)(=O)N4CCCCC4)cc3)[nH]n2)c(O)c1`: the GI50 in assay [1] is above 100 µM; in [2] it was above 100 µM; in [3] it was above 100 µM; in assay [4] it was above 100 µM; in assay [5], 59.6 µM; in [6], above 100 µM. Further, the GI50 in assay [7], in assay [8] and in assay [9] was above 100 µM throughout. For the same compound, the TGI in [1], in assay [2], in assay [3], in assay [4], in assay [5] and in assay [6] was above 100 µM each time. The TGI in [7], in assay [8] and in assay [9] was above 100 µM each time.
Consider `COc1cccc(/C=C2\CCC(CN(C)C)C2=O)c1` (stereo not given), for which the TGI was found to be 9.62 µM in assay [10]; 11.9 µM in [1]; 27.3 µM in assay [2]; 9.55 µM in assay [3]; 22.2 µM in [4]; 11.1 µM in [5]. Also, the TGI in [6] was 29.5 µM; in assay [8], 27.2 µM; in assay [9], 12.7 µM.
Turning to `COc1ccc(O)c(/C=N\Nc2ccccc2)c1`, the TGI in assay [10] was 73.2 µM; in assay [2], 67.7 µM; in assay [3] it was above 100 µM; in assay [4], above 100 µM; in assay [6] it was above 100 µM; in assay [7] it was 5.94 µM. Also, the TGI in assay [8] and in assay [9] was above 100 µM each time.
